Experimental data reported in patent US20250332300A1 (priority 2024, published 2025).
Where two headings read alike, the source gives them in different places.

Legend:
[1] = target: human Herstatin (a soluble truncated HER2 protein) (Homo sapiens, UniProt P04626); assay: SPR selectivity over close protein homologs, Herstatin; type: binding; details: protein homolog immobilized on a CM5 chip
human HER4 = human HER4 (Homo sapiens, UniProt Q15303); assay: SPR selectivity over close protein homologs, HER4; type: binding; details: protein homolog immobilized on a CM5 chip
mouse HER2 (23-653) [2] = target: T1, mouse HER2 (23-653) (Mus musculus, UniProt P70424); assay: Surface plasmon resonance (SPR) for assessment of peptide affinity, mouse HER2; type: binding; design: mouse HER2 (23-653) using a Cy5 labeled peptide as a probe; made in house; details: SPR, mouse HER2 extracellular domain, 25° C., 1:1 binding model; read-out: moHER2-SPR-ONC KD
Text: Each protein was immobilized either onto a SA sensorchip (Cytiva, BR-1005-31) or CM5 sensorchip (Cytiva, BR-1005-30) to a density of 800-2000 RU.
Target sequence in this assay (P70424 23-653): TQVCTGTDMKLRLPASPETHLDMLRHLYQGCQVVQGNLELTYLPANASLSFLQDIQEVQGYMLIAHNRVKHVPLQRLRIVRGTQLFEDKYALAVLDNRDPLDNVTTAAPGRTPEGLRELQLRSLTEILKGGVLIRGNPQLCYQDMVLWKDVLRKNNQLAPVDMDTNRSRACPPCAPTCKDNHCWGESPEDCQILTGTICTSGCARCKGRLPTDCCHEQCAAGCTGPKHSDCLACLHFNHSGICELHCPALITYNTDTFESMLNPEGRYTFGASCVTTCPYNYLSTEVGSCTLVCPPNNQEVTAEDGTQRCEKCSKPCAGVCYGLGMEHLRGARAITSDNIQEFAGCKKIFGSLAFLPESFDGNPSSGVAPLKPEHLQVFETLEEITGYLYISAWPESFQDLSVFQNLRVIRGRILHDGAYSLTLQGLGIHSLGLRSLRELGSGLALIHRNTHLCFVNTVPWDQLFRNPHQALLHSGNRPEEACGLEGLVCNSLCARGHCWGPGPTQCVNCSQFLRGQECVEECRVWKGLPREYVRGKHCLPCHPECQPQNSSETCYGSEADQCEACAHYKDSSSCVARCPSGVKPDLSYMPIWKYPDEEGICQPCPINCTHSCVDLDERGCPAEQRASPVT

human HER2 (23-652) [3] = target: T2, human HER2 (23-652) (Homo sapiens, UniProt P04626); assay: TR-FRET competition assay for peptide potency, human HER2; type: binding; design: towards human HER2 (23-652) and mouse HER2 (23-653); made in house; host or cells: mammalian cells; details: read-out: huHER2 TR-FRET IC50
mouse HER2 (23-653) [4] = target: T1, mouse HER2 (23-653); assay: TR-FRET competition assay for peptide potency, mouse HER2; type: binding; design: mouse HER2 (23-653) using a Cy5 labeled peptide as a probe; made in house; host or cells: mammalian cells; details: TR-FRET competition with Cy5 labeled peptide probe, 0.1 nM mouse HER2, 24 h incubation; read-out: moHER2 TR-FRET IC50
human HER2 (23-652) [5] = target: T2, human HER2 (23-652); assay: Surface plasmon resonance (SPR) for assessment of peptide affinity, human HER2; type: binding; design: towards human HER2 (23-652) and mouse HER2 (23-653); made in house; details: SPR, human HER2 extracellular domain, 25° C., 1:1 binding model; read-out: huHER2-SPR-ONC KD
Method in brief: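 Binding kinetics fitted from sensorgrams with 280 s peptide association then 3000 s dissociation (30 uL/min), using HER2 (23-652) either directly immobilized (SA/CM5) or anti-Fc-captured; 3 M magnesium chloride used for regeneration.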

human EGFR = human EGFR (Homo sapiens, UniProt P00533); assay: SPR selectivity over close protein homologs, EGFR; type: binding; details: protein homolog immobilized on a CM5 chip
human HER3 = human HER3 (Homo sapiens, UniProt P21860); assay: SPR selectivity over close protein homologs, HER3; type: binding; details: protein homolog immobilized on a CM5 chip
[6] = type: physicochemical
Experimental: Radio-HPLC Analytical Method: Eluent A: Water+0.1% TFA; Eluent B: ACN+0.1% TFA; Column temperature: 25° C.; Flow: 1.0 mL/min; Column: […] Gradient: hold 10% B for 1 min, from 10 to 80% B in 8 min, hold 80% B for 2 min, from 80 to 15% B in 1 min. Radio-iTLC Analytical Method: […] For Lu-177 and Ga-68, the radiotracer-spotted iTLC plates were directly read in a radio-TLC scanner after developing in a sodium citrate 0.1M (pH 4.6) mobile phase. Rf([^177Lu/^68Ga]Lu/Ga-labeled compounds)=0.0-0.5 and Rf (unchelated ^177Lu^3+/^68Ga^3+)=0.5-1.0. The initial radiochemical purity of the [^177Lu]Lu-labeled compounds was analyzed by […] and […] and the stability in solution at 24° C. was evaluated after the end of synthesis by radio-HPLC.

[7] = type: physicochemical; remark: listed apart in the source
Experimental: Radio-HPLC Analytical Method: Eluent A: Water+0.1% TFA; Eluent B: ACN+0.1% TFA; Column temperature: 25° C.; Flow: 1.0 mL/min; Column: […] Gradient: hold 10% B for 1 min, from 10 to 80% B in 8 min, hold 80% B for 2 min, from 80 to 15% B in 1 min. The initial radiochemical purity of [^68Ga]Ga-labeled compounds was analyzed by radio-HPLC and the stability in solution at 24° C. was evaluated 4 h after the end of synthesis by radio-HPLC.

human HER3, sequence (P21860 20-1342): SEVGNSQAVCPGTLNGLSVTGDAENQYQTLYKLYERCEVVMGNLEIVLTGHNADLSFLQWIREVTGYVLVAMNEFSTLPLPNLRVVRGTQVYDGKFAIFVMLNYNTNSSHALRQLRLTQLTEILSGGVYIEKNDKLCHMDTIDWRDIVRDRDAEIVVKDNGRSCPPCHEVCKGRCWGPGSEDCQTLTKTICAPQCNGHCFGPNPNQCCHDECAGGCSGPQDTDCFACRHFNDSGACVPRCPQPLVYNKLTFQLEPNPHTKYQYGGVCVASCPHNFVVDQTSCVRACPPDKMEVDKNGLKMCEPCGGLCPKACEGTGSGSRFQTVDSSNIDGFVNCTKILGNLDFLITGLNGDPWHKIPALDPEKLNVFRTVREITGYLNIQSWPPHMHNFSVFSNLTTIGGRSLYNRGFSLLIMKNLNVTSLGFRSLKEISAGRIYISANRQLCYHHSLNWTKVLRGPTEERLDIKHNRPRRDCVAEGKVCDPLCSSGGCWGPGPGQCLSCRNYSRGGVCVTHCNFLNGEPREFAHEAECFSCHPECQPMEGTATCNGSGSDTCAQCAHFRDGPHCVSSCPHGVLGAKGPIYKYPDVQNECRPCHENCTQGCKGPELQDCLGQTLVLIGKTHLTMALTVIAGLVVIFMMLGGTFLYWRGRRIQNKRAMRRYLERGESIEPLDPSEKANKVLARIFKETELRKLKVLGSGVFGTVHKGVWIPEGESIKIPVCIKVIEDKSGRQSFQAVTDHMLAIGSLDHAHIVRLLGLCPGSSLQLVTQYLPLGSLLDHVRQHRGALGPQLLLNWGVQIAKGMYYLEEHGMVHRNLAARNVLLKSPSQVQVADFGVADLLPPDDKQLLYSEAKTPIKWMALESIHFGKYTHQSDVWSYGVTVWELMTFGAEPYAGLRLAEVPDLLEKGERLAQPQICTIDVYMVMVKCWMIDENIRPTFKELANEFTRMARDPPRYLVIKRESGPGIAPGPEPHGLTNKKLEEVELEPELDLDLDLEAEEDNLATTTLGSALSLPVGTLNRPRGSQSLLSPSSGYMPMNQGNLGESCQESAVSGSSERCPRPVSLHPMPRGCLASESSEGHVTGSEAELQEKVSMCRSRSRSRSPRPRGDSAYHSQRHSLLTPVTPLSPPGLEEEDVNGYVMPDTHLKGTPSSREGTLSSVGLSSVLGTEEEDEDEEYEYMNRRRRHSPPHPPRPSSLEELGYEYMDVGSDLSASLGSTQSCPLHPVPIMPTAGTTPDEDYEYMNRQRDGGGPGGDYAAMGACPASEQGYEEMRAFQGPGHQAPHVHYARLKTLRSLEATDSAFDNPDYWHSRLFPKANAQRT
human EGFR, sequence (P00533 25-1210): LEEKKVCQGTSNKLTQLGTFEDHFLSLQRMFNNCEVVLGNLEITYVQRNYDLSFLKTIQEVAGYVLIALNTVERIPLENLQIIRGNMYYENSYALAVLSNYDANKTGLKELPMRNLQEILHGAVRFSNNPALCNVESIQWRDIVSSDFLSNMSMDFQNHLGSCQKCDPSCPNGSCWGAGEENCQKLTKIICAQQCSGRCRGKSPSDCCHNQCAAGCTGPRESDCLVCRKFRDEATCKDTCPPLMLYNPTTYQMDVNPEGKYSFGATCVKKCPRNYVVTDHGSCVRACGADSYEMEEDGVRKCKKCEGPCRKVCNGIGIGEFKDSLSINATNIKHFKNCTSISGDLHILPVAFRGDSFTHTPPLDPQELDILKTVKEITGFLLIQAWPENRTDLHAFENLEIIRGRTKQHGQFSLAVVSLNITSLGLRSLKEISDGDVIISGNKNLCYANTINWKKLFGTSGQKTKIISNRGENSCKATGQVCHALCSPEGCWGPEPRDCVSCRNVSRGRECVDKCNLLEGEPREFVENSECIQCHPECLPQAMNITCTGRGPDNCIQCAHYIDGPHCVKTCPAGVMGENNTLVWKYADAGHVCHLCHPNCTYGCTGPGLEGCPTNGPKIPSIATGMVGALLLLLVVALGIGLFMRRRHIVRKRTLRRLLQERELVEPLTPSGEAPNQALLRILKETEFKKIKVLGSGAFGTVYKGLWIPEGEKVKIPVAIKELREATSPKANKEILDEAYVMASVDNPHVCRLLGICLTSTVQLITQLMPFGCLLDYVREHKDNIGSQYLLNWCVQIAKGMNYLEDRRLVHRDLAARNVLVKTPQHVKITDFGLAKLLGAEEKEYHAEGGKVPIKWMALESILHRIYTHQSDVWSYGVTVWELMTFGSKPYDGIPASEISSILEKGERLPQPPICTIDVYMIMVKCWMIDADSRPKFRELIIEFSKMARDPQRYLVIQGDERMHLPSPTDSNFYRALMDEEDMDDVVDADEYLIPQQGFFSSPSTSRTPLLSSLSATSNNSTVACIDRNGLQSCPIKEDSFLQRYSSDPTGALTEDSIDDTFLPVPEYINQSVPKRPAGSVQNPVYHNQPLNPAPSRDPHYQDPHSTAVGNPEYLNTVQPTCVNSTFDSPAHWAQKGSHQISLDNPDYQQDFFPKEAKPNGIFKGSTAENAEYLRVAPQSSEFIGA
human HER4, sequence (Q15303 26-1308): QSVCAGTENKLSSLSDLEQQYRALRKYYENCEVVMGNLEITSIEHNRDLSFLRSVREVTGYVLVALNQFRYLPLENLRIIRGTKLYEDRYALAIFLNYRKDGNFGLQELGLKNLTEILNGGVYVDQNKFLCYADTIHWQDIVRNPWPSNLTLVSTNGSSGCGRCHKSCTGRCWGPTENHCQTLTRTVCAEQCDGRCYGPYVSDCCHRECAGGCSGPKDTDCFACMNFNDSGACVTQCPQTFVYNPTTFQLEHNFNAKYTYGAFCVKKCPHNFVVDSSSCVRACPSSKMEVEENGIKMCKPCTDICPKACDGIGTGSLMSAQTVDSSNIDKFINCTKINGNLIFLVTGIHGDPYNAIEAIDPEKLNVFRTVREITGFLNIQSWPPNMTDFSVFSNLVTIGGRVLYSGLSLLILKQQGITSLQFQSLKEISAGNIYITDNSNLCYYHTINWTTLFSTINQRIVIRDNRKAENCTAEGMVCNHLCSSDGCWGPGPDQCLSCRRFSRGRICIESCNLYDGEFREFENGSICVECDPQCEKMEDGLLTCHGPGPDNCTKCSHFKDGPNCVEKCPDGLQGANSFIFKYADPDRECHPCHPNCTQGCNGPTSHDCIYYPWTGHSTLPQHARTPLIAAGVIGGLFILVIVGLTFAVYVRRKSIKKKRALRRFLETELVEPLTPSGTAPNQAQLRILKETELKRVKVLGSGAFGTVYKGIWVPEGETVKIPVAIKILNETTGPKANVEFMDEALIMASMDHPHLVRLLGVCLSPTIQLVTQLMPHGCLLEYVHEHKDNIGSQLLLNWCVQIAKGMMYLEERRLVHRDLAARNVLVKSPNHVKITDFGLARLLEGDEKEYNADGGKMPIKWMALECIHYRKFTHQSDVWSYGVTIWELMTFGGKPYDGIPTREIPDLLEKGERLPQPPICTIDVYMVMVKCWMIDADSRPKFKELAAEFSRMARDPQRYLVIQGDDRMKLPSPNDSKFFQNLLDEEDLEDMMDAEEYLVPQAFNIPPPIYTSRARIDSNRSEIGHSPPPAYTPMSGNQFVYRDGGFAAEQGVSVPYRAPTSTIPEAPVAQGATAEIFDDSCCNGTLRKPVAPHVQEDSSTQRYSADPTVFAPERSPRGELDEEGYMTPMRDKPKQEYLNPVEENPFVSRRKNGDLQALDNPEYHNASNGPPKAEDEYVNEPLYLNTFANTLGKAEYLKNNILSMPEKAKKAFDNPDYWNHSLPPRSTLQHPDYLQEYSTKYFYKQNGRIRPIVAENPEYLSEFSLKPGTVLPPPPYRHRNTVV

CC(=O)NCCCC[C@H]1C(=O)N[C@@H](Cc2c[nH]c3ccc(O)cc23)C(=O)N[C@@H](Cc2c[nH]c3ccccc23)C(=O)N[C@@H](C2CC2)C(=O)N(C)[C@H](C(=O)N(C)[C@@H](Cc2ccc(F)cc2)C(=O)N[C@@H](CCCCNC(=O)CN2CCN(CC(=O)O)CCN(CC(=O)O)CCN(CC(=O)O)CC2)C(N)=O)CNC(=O)CCC[C@H](NC(C)=O)C(=O)N[C@@H](Cc2ccc(O)cc2)C(=O)N[C@@H](CO)C(=O)N(C)[C@@H](CCc2ccccc2)C(=O)N1C [Example B1]
Kd [1]: > 6 µM
Kd (human HER4): > 6 µM
Kd (mouse HER2 (23-653) [2]): < 0.0001 µM
IC50 (human HER2 (23-652) [3]): < 0.0001 µM
IC50 (mouse HER2 (23-653) [4]): < 0.0001 µM
Kd (human HER2 (23-652) [5]): < 0.0001 µM
Kd (human EGFR): > 6 µM
Kd (human HER3): > 6 µM

COCCOCCOCCOCCOCCOCCOCCOCCOCCOCCOCCOCCC(=O)N[C@H]1CCCC(=O)NC[C@@H](C(=O)N(C)[C@@H](Cc2ccc(F)cc2)C(=O)N[C@@H](CCCCNC(=O)CN2CCN(CC(=O)O)CCN(CC(=O)O)CCN(CC(=O)O)CC2)C(N)=O)N(C)C(=O)[C@H](C2CC2)NC(=O)[C@H](Cc2c[nH]c3ccccc23)NC(=O)[C@H](Cc2c[nH]c3ccc(O)cc23)NC(=O)[C@H](CCCCNC(C)=O)N(C)C(=O)[C@H](CCc2ccccc2)N(C)C(=O)[C@H](CO)NC(=O)[C@H](Cc2ccc(O)cc2)NC1=O [Example B2]
Kd [1]: > 6 µM
Kd (human HER4): > 6 µM
Kd (mouse HER2 (23-653) [2]): 0.0001 µM
IC50 (human HER2 (23-652) [3]): < 0.0001 µM
IC50 (mouse HER2 (23-653) [4]): 0.0002 µM
Kd (human HER2 (23-652) [5]): < 0.0001 µM
Kd (human EGFR): > 6 µM
Kd (human HER3): > 6 µM

CC(=O)NCCCC[C@H]1C(=O)N[C@@H](Cc2c[nH]c3ccc(O)cc23)C(=O)N[C@@H](Cc2c[nH]c3ccccc23)C(=O)N[C@@H](C2CC2)C(=O)N(C)[C@H](C(=O)N(C)[C@@H](Cc2ccc(F)cc2)C(=O)N[C@@H](CCCCNC(=O)CN2CCN(CC(=O)O)CCN(CC(=O)O)CCN(CC(=O)O)CC2)C(N)=O)CNC(=O)CCC[C@H](NC(C)=O)C(=O)N[C@H](Cc2ccc(O)cc2)C(=O)N[C@H](CO)C(=O)N(C)[C@@H](CCc2ccccc2)C(=O)N1C [Example B4]
Kd [1]: > 6 µM
Kd (human HER4): > 6 µM
Kd (mouse HER2 (23-653) [2]): > 6 µM
IC50 (human HER2 (23-652) [3]): > 1 µM
IC50 (mouse HER2 (23-653) [4]): > 1 µM
Kd (human HER2 (23-652) [5]): > 6 µM
Kd (human EGFR): > 6 µM
Kd (human HER3): > 6 µM

CC(=O)NCCCC[C@H]1C(=O)N[C@@H](Cc2c[nH]c3ccc(O)cc23)C(=O)N[C@@H](Cc2c[nH]c3ccccc23)C(=O)N[C@@H](C2CC2)C(=O)N(C)[C@H](C(=O)N(C)[C@@H](Cc2ccc(F)cc2)C(=O)N[C@@H](CCCCNC(=O)CN2CCN(CC(=O)O)CCN(CC(=O)O)CCN(CC(=O)O)CC2)C(N)=O)CNC(=O)CCC[C@H](NC(C)=O)C(=O)N[C@H](Cc2ccc(O)cc2)C(=O)N[C@H](CO)C(=O)N(C)[C@@H](CCc2ccccc2)C(=O)N1C [Example H4, Example B4 labelled with ^177Lu, metal not drawn]
Radiochemical purity by radio-HPLC, stability in solution, 5 h (%) [6]: 98.6%
Radiochemical purity by radio-HPLC, stability in solution, 24 h (%) [6]: 98.2%
Radiochemical purity by radio-HPLC, stability in solution, 48 h (%) [6]: 97.6%
Radiochemical purity by radio-HPLC, stability in solution, 72 h (%) [6]: 97.8%

COCCOCCOCCOCCOCCOCCOCCOCCOCCOCCOCCOCCC(=O)N[C@H]1CCCC(=O)NC[C@@H](C(=O)N(C)[C@@H](Cc2ccc(F)cc2)C(=O)N[C@@H](CCCCNC(=O)CN2CCN(CC(=O)O)CCN(CC(=O)O)CCN(CC(=O)O)CC2)C(N)=O)N(C)C(=O)[C@H](C2CC2)NC(=O)[C@H](Cc2c[nH]c3ccccc23)NC(=O)[C@H](Cc2c[nH]c3ccc(O)cc23)NC(=O)[C@H](CCCCNC(C)=O)N(C)C(=O)[C@H](CCc2ccccc2)N(C)C(=O)[C@H](CO)NC(=O)[C@H](Cc2ccc(O)cc2)NC1=O [Example I1, Example B2 labelled with ^68Ga, metal not drawn]
Radiochemical purity by radio-HPLC, stability in solution, 4 h [7]: 97.2%

CC(=O)NCCCC[C@H]1C(=O)N[C@@H](Cc2c[nH]c3ccc(O)cc23)C(=O)N[C@@H](Cc2c[nH]c3ccccc23)C(=O)N[C@@H](C2CC2)C(=O)N(C)[C@H](C(=O)N(C)[C@@H](Cc2ccc(F)cc2)C(=O)N[C@@H](CCCCNC(=O)CN2CCN(CC(=O)O)CCN(CC(=O)O)CCN(CC(=O)O)CC2)C(N)=O)CNC(=O)CCC[C@H](NC(C)=O)C(=O)N[C@@H](Cc2ccc(O)cc2)C(=O)N[C@@H](CO)C(=O)N(C)[C@@H](CCc2ccccc2)C(=O)N1C [Example I2, Example B1 labelled with ^68Ga, metal not drawn]
Radiochemical purity by radio-HPLC, stability in solution, 4 h [7]: 97.2%

(3R,6S,9S,12S,15S,18S,21S,24S,27S)-9-((1H-indol-3-yl)methyl)-27-amino-N—((S)-1-amino-3-(4-fluorophenyl)-1-oxopropan-2-yl)-6-cyclopropyl-12-((5-hydroxy-1H-indol-3-yl)methyl)-24-(4-hydroxybenzyl)-15,21-bis(hydroxymethyl)-N,4,16,19-tetramethyl-5,8,11,14,17,20,23,26,30-nonaoxo-18-phenethyl-1-thia-4,7,10,13,16,19,22,25,29-nonaazacyclohentriacontane-3-carboxamide TFA salt
ring closure, yield after HPLC (thioether bond, 31-membered ring, DIEA, then pyrrolidine, ACN/water, […], with chain assembly): 1%

(4R,7S,10S,13S,16S,19S,22S,25S,28R)-10-((1H-indol-3-yl)methyl)-28-amino-N—((S)-1-amino-3-(4-fluorophenyl)-1-oxopropan-2-yl)-7-cyclopropyl-13-((5-hydroxy-1H-indol-3-yl)methyl)-25-(4-hydroxybenzyl)-16,22-bis(hydroxymethyl)-N,5,17,20-tetramethyl-6,9,12,15,18,21,24,27-octaoxo-19-phenethyl-1,2-dithia-5,8,11,14,17,20,23,26-octaazacyclononacosane-4-carboxamide TFA salt
ring closure, yield after HPLC (disulfide bond, 29-membered ring, DMSO (air), DMSO/water 1/4, 1.88 mM, […]): 26%

((S)-2-((3S,6S,9S,12S,15S,18S,21S,24S,27S)-9-((1H-indol-3-yl)methyl)-27-acetamido-15-(4-acetamidobutyl)-6-cyclopropyl-12-((5-hydroxy-1H-indol-3-yl)methyl)-24-(4-hydroxybenzyl)-21-(hydroxymethyl)-N,4,16,19-tetramethyl-5,8,11,14,17,20,23,26,31-nonaoxo-18-phenethyl-1,4,7,10,13,16,19,22,25-nonaazacyclohentriacontane-3-carboxamido)-3-(4-fluorophenyl) propanoyl)-L-lysine TFA Salt
ring closure, yield after HPLC (amide bond, 31-membered ring, HATU/DIEA, DMF, resin, 10.0 mM, with chain assembly): 2.4%

Ac-hGlu-Tyr-Ser-MehPhe-MeLys(COCH2OH)-Trp(5-OH)-Trp-Gly(cPr)-MeDap-MePhe(4-F)-Lys(Alloc)-NH2?
ring closure, yield after HPLC (the molecule shown is the open-chain precursor, amide bond, 31-membered ring, PyAOP/DIEA, then Pd(PPh3)4/PhSiH3, DMF, 5.0 mM, with chain assembly): 10.3%

Fmoc-hGlu-Tyr-Ser-MehPhe-MeLys(Ac)-Trp(5-OH)-Trp-Gly(cPr)-MeDap-MePhe(4-F)-Lys(N3)-NH2?
ring closure, yield after HPLC (the molecule shown is the open-chain precursor, amide bond, 31-membered ring, HATU/2,6-lutidine, DMF/DCM 1:10, 0.76 mM): 64%

HOOC(CH2)4CO-Tyr-Ser-MehPhe-MeLys(Ac)-Trp(5-OH)-Trp-Gly(cPr)-MeDap-MePhe(4-F)-Lys(Boc)-NH2?
ring closure, yield after HPLC (the molecule shown is the open-chain precursor, amide bond, 31-membered ring, PyAOP/Et3N, DCM, 0.52 mM): 51%
